This assay deals with NL-RLuc virus. Briefly: Inhibition of HIV replication (NL-RLuc reporter virus in MT-2 cells, luciferase readout). It is filed as cell-based. As to conditions: Human immunodeficiency virus 1, MT2, 120 h. Summed up: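 MT-2 cells infected with NL4-3-derived NL-RLuc reporter virus (Renilla luciferase replacing part of nef) with serial compound dilutions, RPMI 1640 + 10% FBS; 5 days. Growth by luciferase; EC50 from median effect equation, ≥2 experiments.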

Data on 23 molecules can be found in patent publication US10189816B2, “Substituted pyridines as inhibitors of human immunodeficiency virus replication” (priority 2015, dated 2019).

Each structure is given as a SMILES string. Where two headings read alike, the source gives them in different places.

With `Cc1nc(C)c([C@H](OC(C)(C)C)C(=O)O)c(N2CCC(C)(C)CC2)c1-c1ccc2c(c1)CCN(Cc1ccccc1C#N)C2` [Compound 62, (S)-2-(tert-butoxy)-2-(5-(2-(2-cyanobenzyl)-1,2,3,4-tetrahydroisoquinolin-6-yl)-4-(4,4-dimethylpiperidin-1-yl)-2,6-dimethylpyridin-3-yl)acetic acid], the EC50 (read-out: Activity) is less than 0.1 µM. `Cc1nc(C)c([C@H](OC(C)(C)C)C(=O)O)c(N2CCC(C)(C)CC2)c1-c1ccc2c(c1)CCN(Cc1cc(C#N)ccc1F)C2` [Compound 63, (S)-2-(tert-butoxy)-2-(5-(2-(5-cyano-2-fluorobenzyl)-1,2,3,4-tetrahydroisoquinolin-6-yl)-4-(4,4-dimethylpiperidin-1-yl)-2,6-dimethylpyridin-3-yl)acetic acid]: the EC50 (read-out: Activity) was less than 0.1 µM. Same read-out and setting: the result for `Cc1nc(C)c([C@H](OC(C)(C)C)C(=O)O)c(N2CCC(C)(C)CC2)c1-c1ccc2c(c1)CCN(Cc1ccc(C#N)cc1)C2` [Compound 64, (S)-2-(tert-butoxy)-2-(5-(2-(4-cyanobenzyl)-1,2,3,4-tetrahydroisoquinolin-6-yl)-4-(4,4-dimethylpiperidin-1-yl)-2,6-dimethylpyridin-3-yl)acetic acid] reads less than 0.1 µM; that for `Cc1cc(C#N)ccc1CN1CCc2cc(-c3c(C)nc(C)c([C@H](OC(C)(C)C)C(=O)O)c3N3CCC(C)(C)CC3)ccc2C1` [Compound 65, (S)-2-(tert-butoxy)-2-(5-(2-(4-cyano-2-methylbenzyl)-1,2,3,4-tetrahydroisoquinolin-6-yl)-4-(4,4-dimethylpiperidin-1-yl)-2,6-dimethylpyridin-3-yl)acetic acid], less than 0.1 µM. For `Cc1nc(C)c([C@H](OC(C)(C)C)C(=O)O)c(N2CCC(C)(C)CC2)c1-c1ccc2c(c1)CCN(Cc1cc(F)ccc1C(F)(F)F)C2` [Compound 66, (S)-2-(tert-butoxy)-2-(4-(4,4-dimethylpiperidin-1-yl)-5-(2-(5-fluoro-2-(trifluoromethyl)benzyl)-1,2,3,4-tetrahydroisoquinolin-6-yl)-2,6-dimethylpyridin-3-yl)acetic acid], the EC50 reads like this: (read-out: Activity) less than 0.1 µM; (read-out: EC50 μM) 0.013 µM. Turning to `Cc1nc(C)c([C@H](OC(C)(C)C)C(=O)O)c(N2CCC(C)(C)CC2)c1-c1ccc2c(c1)CCN(Cc1ccc(F)c(C(F)(F)F)c1)C2` [Compound 67, (S)-2-(tert-butoxy)-2-(4-(4,4-dimethylpiperidin-1-yl)-5-(2-(4-fluoro-3-(trifluoromethyl)benzyl)-1,2,3,4-tetrahydroisoquinolin-6-yl)-2,6-dimethylpyridin-3-yl)acetic acid], the EC50 (read-out: Activity) is less than 0.1 µM. On the same count and under the same terms, next, `Cc1nc(C)c([C@H](OC(C)(C)C)C(=O)O)c(N2CCC(C)(C)CC2)c1-c1ccc2c(c1)CCN(Cc1cc(F)cc(C(F)(F)F)c1)C2` [Compound 68, (S)-2-(tert-butoxy)-2-(4-(4,4-dimethylpiperidin-1-yl)-5-(2-(3-fluoro-5-(trifluoromethyl)benzyl)-1,2,3,4-tetrahydroisoquinolin-6-yl)-2,6-dimethylpyridin-3-yl)acetic acid]: less than 0.1 µM. Regarding `Cc1nc(C)c([C@H](OC(C)(C)C)C(=O)O)c(N2CCC(C)(C)CC2)c1-c1ccc2c(c1)CCN(Cc1ccc(F)cc1C(F)(F)F)C2` [Compound 69, (S)-2-(tert-butoxy)-2-(4-(4,4-dimethylpiperidin-1-yl)-5-(2-(4-fluoro-2-(trifluoromethyl)benzyl)-1,2,3,4-tetrahydroisoquinolin-6-yl)-2,6-dimethylpyridin-3-yl)acetic acid], the EC50 (read-out: Activity) is less than 0.1 µM.

With `Cc1nc(C)c([C@H](OC(C)(C)C)C(=O)O)c(N2CCC(C)(C)CC2)c1-c1ccc2c(c1)CCN(Cc1cc(C(F)(F)F)ccc1F)C2` [Compound 70, (S)-2-(tert-butoxy)-2-(4-(4,4-dimethylpiperidin-1-yl)-5-(2-(2-fluoro-5-(trifluoromethyl)benzyl)-1,2,3,4-tetrahydroisoquinolin-6-yl)-2,6-dimethylpyridin-3-yl)acetic acid], the EC50 (read-out: Activity) is less than 0.1 µM. The same measure, in the same setting: the result for `Cc1cc(CN2CCc3cc(-c4c(C)nc(C)c([C@H](OC(C)(C)C)C(=O)O)c4N4CCC(C)(C)CC4)ccc3C2)ccc1F` [Compound 71, (S)-2-(tert-butoxy)-2-(4-(4,4-dimethylpiperidin-1-yl)-5-(2-(4-fluoro-3-methylbenzyl)-1,2,3,4-tetrahydroisoquinolin-6-yl)-2,6-dimethylpyridin-3-yl)acetic acid] reads less than 0.1 µM; that for `Cc1nc(C)c([C@H](OC(C)(C)C)C(=O)O)c(N2CCC(C)(C)CC2)c1-c1ccc2c(c1)CCN(Cc1ccc(F)c(C)c1C)C2` [Compound 72, (S)-2-(tert-butoxy)-2-(4-(4,4-dimethylpiperidin-1-yl)-5-(2-(4-fluoro-2,3-dimethylbenzyl)-1,2,3,4-tetrahydroisoquinolin-6-yl)-2,6-dimethylpyridin-3-yl)acetic acid], less than 0.1 µM. With `Cc1ccc(CN2CCc3cc(-c4c(C)nc(C)c([C@H](OC(C)(C)C)C(=O)O)c4N4CCC(C)(C)CC4)ccc3C2)c(F)c1F` [Compound 73, (S)-2-(tert-butoxy)-2-(5-(2-(2,3-difluoro-4-methylbenzyl)-1,2,3,4-tetrahydroisoquinolin-6-yl)-4-(4,4-dimethylpiperidin-1-yl)-2,6-dimethylpyridin-3-yl)acetic acid], the EC50 by setting is: (read-out: Activity) less than 0.1 µM; (read-out: EC50 μM) 0.007 µM. In the case of `Cc1ccc(F)c(CN2CCc3cc(-c4c(C)nc(C)c([C@H](OC(C)(C)C)C(=O)O)c4N4CCC(C)(C)CC4)ccc3C2)c1` [Compound 74, (S)-2-(tert-butoxy)-2-(4-(4,4-dimethylpiperidin-1-yl)-5-(2-(2-fluoro-5-methylbenzyl)-1,2,3,4-tetrahydroisoquinolin-6-yl)-2,6-dimethylpyridin-3-yl)acetic acid], under “read-out: Activity”, the EC50 was less than 0.1 µM. Same read-out and setting: next, `Cc1cc(CN2CCc3cc(-c4c(C)nc(C)c([C@H](OC(C)(C)C)C(=O)O)c4N4CCC(C)(C)CC4)ccc3C2)cc(C)c1F` [Compound 75, (S)-2-(tert-butoxy)-2-(4-(4,4-dimethylpiperidin-1-yl)-5-(2-(4-fluoro-3,5-dimethylbenzyl)-1,2,3,4-tetrahydroisoquinolin-6-yl)-2,6-dimethylpyridin-3-yl)acetic acid]: less than 0.1 µM. Same read-out and setting: next, `Cc1cc(CN2CCc3cc(-c4c(C)nc(C)c([C@H](OC(C)(C)C)C(=O)O)c4N4CCC(C)(C)CC4)ccc3C2)cc(F)c1F` [Compound 76, (S)-2-(tert-butoxy)-2-(5-(2-(3,4-difluoro-5-methylbenzyl)-1,2,3,4-tetrahydroisoquinolin-6-yl)-4-(4,4-dimethylpiperidin-1-yl)-2,6-dimethylpyridin-3-yl)acetic acid]: less than 0.1 µM; `Cc1nc(C)c([C@H](OC(C)(C)C)C(=O)O)c(N2CCC(C)(C)CC2)c1-c1ccc2c(c1)CCN(Cc1ccccc1C(C)C)C2` [Compound 77, (S)-2-(tert-butoxy)-2-(4-(4,4-dimethylpiperidin-1-yl)-5-(2-(2-isopropylbenzyl)-1,2,3,4-tetrahydroisoquinolin-6-yl)-2,6-dimethylpyridin-3-yl)acetic acid]: less than 0.1 µM. Same read-out and setting: the result for `Cc1cc(C)c(CN2CCc3cc(-c4c(C)nc(C)c([C@H](OC(C)(C)C)C(=O)O)c4N4CCC(C)(C)CC4)ccc3C2)cc1C` [Compound 78, (S)-2-(tert-butoxy)-2-(4-(4,4-dimethylpiperidin-1-yl)-2,6-dimethyl-5-(2-(2,4,5-trimethylbenzyl)-1,2,3,4-tetrahydroisoquinolin-6-yl)pyridin-3-yl)acetic acid] reads less than 0.1 µM; that for `Cc1cc(C)cc(CN2CCc3cc(-c4c(C)nc(C)c([C@H](OC(C)(C)C)C(=O)O)c4N4CCC(C)(C)CC4)ccc3C2)c1` [Compound 79, (S)-2-(tert-butoxy)-2-(5-(2-(3,5-dimethylbenzyl)-1,2,3,4-tetrahydroisoquinolin-6-yl)-4-(4,4-dimethylpiperidin-1-yl)-2,6-dimethylpyridin-3-yl)acetic acid], less than 0.1 µM.

Turning to `Cc1cccc(CN2CCc3cc(-c4c(C)nc(C)c([C@H](OC(C)(C)C)C(=O)O)c4N4CCC(C)(C)CC4)ccc3C2)c1C` [Compound 80, (S)-2-(tert-butoxy)-2-(5-(2-(2,3-dimethylbenzyl)-1,2,3,4-tetrahydroisoquinolin-6-yl)-4-(4,4-dimethylpiperidin-1-yl)-2,6-dimethylpyridin-3-yl)acetic acid], the EC50 is less than 0.1 µM (read-out: Activity) and 0.003 µM (read-out: EC50 μM). For the molecule `Cc1nc(C)c([C@H](OC(C)(C)C)C(=O)O)c(N2CCC(C)(C)CC2)c1-c1ccc2c(c1)CCN(Cc1cccc(C(C)(C)C)c1)C2` [Compound 81, (S)-2-(tert-butoxy)-2-(5-(2-(3-(tert-butyl)benzyl)-1,2,3,4-tetrahydroisoquinolin-6-yl)-4-(4,4-dimethylpiperidin-1-yl)-2,6-dimethylpyridin-3-yl)acetic acid], the EC50 (read-out: Activity) was less than 0.1 µM.

As for `Cc1nc(C)c([C@H](OC(C)(C)C)C(=O)O)c(N2CCC(C)(C)CC2)c1-c1ccc2c(c1)CCN(Cc1cccc(F)c1C)C2` [Compound 82, (S)-2-(tert-butoxy)-2-(4-(4,4-dimethylpiperidin-1-yl)-5-(2-(3-fluoro-2-methylbenzyl)-1,2,3,4-tetrahydroisoquinolin-6-yl)-2,6-dimethylpyridin-3-yl)acetic acid], where the note is “read-out: Activity”, the EC50 was less than 0.1 µM. For the molecule `COc1cc(F)c(CN2CCc3cc(-c4c(C)nc(C)c([C@H](OC(C)(C)C)C(=O)O)c4N4CCC(C)(C)CC4)ccc3C2)cc1F` [Compound 83, (S)-2-(tert-butoxy)-2-(5-(2-(2,5-difluoro-4-methoxybenzyl)-1,2,3,4-tetrahydroisoquinolin-6-yl)-4-(4,4-dimethylpiperidin-1-yl)-2,6-dimethylpyridin-3-yl)acetic acid], the EC50 (read-out: Activity) is less than 0.1 µM. Same read-out and setting: the result for `Cc1nc(C)c([C@H](OC(C)(C)C)C(=O)O)c(N2CCC(C)(C)CC2)c1-c1ccc2c(c1)CCN(Cc1cc(Cl)cc(Cl)c1OCc1ccccc1)C2` [Compound 85, (S)-2-(5-(2-(2-(benzyloxy)-3,5-dichlorobenzyl)-1,2,3,4-tetrahydroisoquinolin-6-yl)-4-(4,4-dimethylpiperidin-1-yl)-2,6-dimethylpyridin-3-yl)-2-(tert-butoxy)acetic acid] reads less than 0.1 µM.
